{"source": "BindingDB's records for doi:10.1021/cb500009r", "about": "(Shanghai Center For Systems Biomedicine, 2014)", "key": {"[1]": {"biological_target": "T1, Dopa decarboxylase (Aromatic L-amino acid decarboxylase), isoform CRA_a (Homo sapiens, UniProt Q53Y41)", "T1 sequence (Q53Y41 whole entry)": "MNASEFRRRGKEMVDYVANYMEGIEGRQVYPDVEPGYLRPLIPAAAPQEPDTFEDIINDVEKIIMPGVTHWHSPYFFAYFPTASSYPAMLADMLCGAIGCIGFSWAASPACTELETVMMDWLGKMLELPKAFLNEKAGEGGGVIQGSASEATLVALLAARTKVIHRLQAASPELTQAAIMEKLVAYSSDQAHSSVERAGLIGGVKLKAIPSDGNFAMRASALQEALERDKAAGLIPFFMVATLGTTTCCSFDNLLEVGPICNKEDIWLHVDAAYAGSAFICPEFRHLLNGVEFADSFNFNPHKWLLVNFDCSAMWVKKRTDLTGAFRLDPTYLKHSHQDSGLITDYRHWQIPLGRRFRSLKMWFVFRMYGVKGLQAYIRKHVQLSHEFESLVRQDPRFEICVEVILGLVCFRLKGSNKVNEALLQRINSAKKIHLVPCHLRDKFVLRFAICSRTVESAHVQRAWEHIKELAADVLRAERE", "assay": "DDC-MDH-PEPC-Linked assay", "conditions": "pH 8.05; 37 °C", "description": "To the wells of a 384-well polypropylene plate, 1 µL DMSO (control) or test compounds at indicated concentrations were added, followed by the addition of 24.5 µL enzyme mix [50 mM Tris-HCl, 50 mM NaCl, 0.015% (w/v) BSA, 5 mM MgCl2, 2 mM β-mercaptoethanol, 760 µM NADH, 330 nM PEPC, 100 µM PLP and 284 nM hDDC, pH 8.05], and 24.5 µL substrate mix [50 mM Tris-HCl containing 50 mM NaCl, 0.015% (w/v) BSA, 5 mM MgCl2, 2 mM β-mercaptoethanol, 10 mM PPPA, 0.49 U MDH and 1.5 mM L-DOPA, pH 8.05]. The plate was sealed and incubated for 1 h in 37 °C. The OD was taken at 340 nm."}, "[2]": {"biological_target": "Cystathionine gamma-lyase (Homo sapiens, UniProt P32929)", "sequence (P32929 whole entry)": "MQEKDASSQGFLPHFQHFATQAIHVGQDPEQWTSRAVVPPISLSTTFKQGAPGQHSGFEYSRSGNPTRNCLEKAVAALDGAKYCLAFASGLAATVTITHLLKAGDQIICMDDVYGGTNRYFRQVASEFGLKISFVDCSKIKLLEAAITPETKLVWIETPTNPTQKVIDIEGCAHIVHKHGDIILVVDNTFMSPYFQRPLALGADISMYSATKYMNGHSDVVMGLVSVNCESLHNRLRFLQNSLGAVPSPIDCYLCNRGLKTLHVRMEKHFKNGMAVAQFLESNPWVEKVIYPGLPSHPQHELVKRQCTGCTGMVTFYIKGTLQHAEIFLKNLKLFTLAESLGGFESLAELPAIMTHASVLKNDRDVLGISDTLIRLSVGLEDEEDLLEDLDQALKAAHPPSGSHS", "assay": "Human CSE enzyme assay", "conditions": "pH 7; 37 °C", "description": "500 nM hCSE in optimal buffer (50 mM Hepes, pH 7.0; final concentration) was incubated with compound for 45 min in the 192-tandem-well plate before adding substrate (5 mM L-cysteine; final concentration). The reaction was then incubated at 37 °C for 60 min before the absorbance at 413 nm of DTNB was measured."}}, "data": [{"smiles": "COc1ccc(CCCc2ccc(O)c(OC)c2)c(O)c1", "note": "[1-(2-hydroxy-4-meth-oxyphenyl)-3-(4-hydroxy-3-methoxyphenyl)propane (12)]", "values": [{"measurement": "IC50", "setting": "[1]", "value": "> 200", "unit": "µM"}, {"measurement": "IC50", "setting": "[2]", "value": "> 200", "unit": "µM"}]}, {"smiles": "COc1cc(OC)c2c(c1)O[C@@H](c1ccc(O)c(O)c1)CC2", "note": "[(2R)-3′,4′-Dihydroxy-5,7-methoxyflavan (14)]", "values": [{"measurement": "IC50", "setting": "[1]", "value": "> 200", "unit": "µM"}, {"measurement": "IC50", "setting": "[2]", "value": "> 200", "unit": "µM"}]}, {"smiles": "COc1ccc2c(c1)O[C@@H](c1ccc(O)c(O)c1)CC2", "note": "[(2R)-3′,4′-Dihydroxy-7-methoxyflavan (13)]", "values": [{"measurement": "IC50", "setting": "[1]", "value": "> 200", "unit": "µM"}, {"measurement": "IC50", "setting": "[2]", "value": "> 200", "unit": "µM"}]}, {"smiles": "COc1cc(CC=C(c2cc(O)c(OC)cc2O)c2c(OC)cc3c(c2O)CCC(c2ccc(O)c(O)c2)O3)ccc1O", "note": "(stereo not drawn) [(+)-Euonyquinone C (9)]", "values": [{"measurement": "IC50", "setting": "[1]", "value": 100, "unit": "µM"}, {"measurement": "IC50", "setting": "[2]", "value": "> 200", "unit": "µM"}]}, {"smiles": "COc1cc(CCCc2ccc(OC)c(O)c2OC)ccc1O", "note": "[Broussonin F (11)]", "values": [{"measurement": "IC50", "setting": "[1]", "value": "> 200", "unit": "µM"}, {"measurement": "IC50", "setting": "[2]", "value": "> 200", "unit": "µM"}]}, {"smiles": "COc1cc(CC=C(c2cc(O)c(OC)cc2O)c2cc(CCCc3ccc(O)c(OC)c3)c(O)cc2OC)ccc1O", "note": "[Combrequinone B (6)]", "values": [{"measurement": "IC50", "setting": "[1]", "value": 21.6, "unit": "µM"}, {"measurement": "IC50", "setting": "[2]", "value": "> 200", "unit": "µM"}]}, {"smiles": "COc1cc(CCCc2cc(C(CCc3ccc(O)c(OC)c3)c3cc(OC)c(OC)cc3O)c(OC)cc2O)ccc1O", "note": "(stereo not drawn) [Euonydiarylpropane A (1)]", "values": [{"measurement": "IC50", "setting": "[1]", "value": 100, "unit": "µM"}, {"measurement": "IC50", "setting": "[2]", "value": "> 200", "unit": "µM"}]}, {"smiles": "COc1cc(CCCc2cc(C(CCc3ccc(O)c(OC)c3)c3cc(OC)c(OC)cc3O)c(O)cc2OC)ccc1O", "note": "(stereo not drawn) [Euonydiarylpropane B (2)]", "values": [{"measurement": "IC50", "setting": "[1]", "value": 100, "unit": "µM"}, {"measurement": "IC50", "setting": "[2]", "value": "> 200", "unit": "µM"}]}, {"smiles": "COc1ccc(C(CCc2ccc(O)c(OC)c2)c2cc(CCCc3ccc(O)c(OC)c3)c(O)cc2OC)c(O)c1", "note": "(stereo not drawn) [Euonydiarylpropane C (3)]", "values": [{"measurement": "IC50", "setting": "[1]", "value": "> 200", "unit": "µM"}, {"measurement": "IC50", "setting": "[2]", "value": "> 200", "unit": "µM"}]}, {"smiles": "COc1cc(CCCc2cc(C(CCc3ccc(O)c(OC)c3)c3cc(O)c(OC)cc3OC)c(O)cc2OC)ccc1O", "note": "(stereo not drawn) [Euonydiarylpropane D (4)]", "values": [{"measurement": "IC50", "setting": "[1]", "value": "> 200", "unit": "µM"}, {"measurement": "IC50", "setting": "[2]", "value": "> 200", "unit": "µM"}]}, {"smiles": "COC1=CC(=O)C(CC(=O)Cc2ccc(O)c(OC)c2)=C(c2cc(CCCc3ccc(O)c(OC)c3)c(OC)cc2O)C1=O", "note": "[Euonyquinone A (5)]", "values": [{"measurement": "IC50", "setting": "[1]", "value": 11.5, "unit": "µM"}, {"measurement": "IC50", "setting": "[2]", "value": "> 200", "unit": "µM"}]}, {"smiles": "COc1cc(CC=C(c2cc(O)c(OC)cc2O)c2c(OC)cc3c(c2O)CCC(c2ccc(O)c(OC)c2)O3)ccc1O", "note": "(stereo not drawn) [Euonyquinone B (7)]", "values": [{"measurement": "IC50", "setting": "[1]", "value": 50, "unit": "µM"}, {"measurement": "IC50", "setting": "[2]", "value": "> 200", "unit": "µM"}]}, {"smiles": "COc1cc(CCCc2ccc(O)cc2OC)ccc1O", "note": "[Griffithane B (10)]", "values": [{"measurement": "IC50", "setting": "[1]", "value": "> 200", "unit": "µM"}, {"measurement": "IC50", "setting": "[2]", "value": "> 200", "unit": "µM"}]}, {"smiles": "C[C@](N)(Cc1ccc(O)c(O)c1)C(=O)O", "note": "[SMR000059170]", "values": [{"measurement": "IC50", "setting": "[1]", "value": 1200, "unit": "µM"}, {"measurement": "IC50", "setting": "[2]", "value": 3000, "unit": "µM"}]}]}
